# According to ChEMBL document CHEMBL1201862, “PubChem BioAssay data set” (2004):
#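 In this assay, cells in 96-well plates receive the compound at five concentrations for 48 hours. Endpoints are linearly interpolated between the surrounding concentrations. GI50 = concentration required for 50% inhibition of growth.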 Active and inactive are the calls of the source. No stated cut-off is given here; in the data, active = GI50 up to about 1.1 µM and inactive = higher.
# What was measured:
# Test in all cases: DTP human tumour cell line panel, 48 h
# COLO 205 = test system: COLO 205
# UACC-257 = test system: UACC-257
# NCI/ADR-RES = test system: NCI/ADR-RES
# NCI-H23 = test system: NCI-H23
# OVCAR-4 = test system: OVCAR-4
# NCI-H460 = test system: NCI-H460
# MDA-MB-231 = test system: MDA-MB-231
# IGROV-1 = test system: IGROV-1
# CCRF-CEM = test system: CCRF-CEM
# HOP-62 = test system: HOP-62
# NCI-H522 = test system: NCI-H522
# SNB-75 = test system: SNB-75
# SF-268 = test system: SF-268
# ACHN = test system: ACHN
# T47D = test system: T47D
# OVCAR-5 = test system: OVCAR-5
# Hs-578T = test system: Hs-578T
# SF-539 = test system: SF-539
# NCI-H226 = test system: NCI-H226
# LOX IMVI = test system: LOX IMVI
# MDA-MB-435 = test system: MDA-MB-435
# SN12C = test system: SN12C
# Malme-3M = test system: Malme-3M
# SK-OV-3 = test system: SK-OV-3
# UACC-62 = test system: UACC-62
# HCT-116 = test system: HCT-116
# 786-0 = test system: 786-0
# SF-295 = test system: SF-295
# CAKI-1 = test system: CAKI-1
# HCC 2998 = test system: HCC 2998
# MCF7 = test system: MCF7
# K562 = test system: K562
# TK-10 = test system: TK-10
# SK-MEL-2 = test system: SK-MEL-2
# SNB-19 = test system: SNB-19
# RXF 393 = test system: RXF 393
# HL-60 = test system: HL-60
# A498 = test system: A498
# EKVX = test system: EKVX
# RPMI-8226 = test system: RPMI-8226
# OVCAR-3 = test system: OVCAR-3
# DU-145 = test system: DU-145
# HT-29 = test system: HT-29
# SK-MEL-28 = test system: SK-MEL-28
# U-251 = test system: U-251
# OVCAR-8 = test system: OVCAR-8
# KM12 = test system: KM12
# SW-620 = test system: SW-620
# UO-31 = test system: UO-31
# MOLT-4 = test system: MOLT-4
# HOP-92 = test system: HOP-92
# SK-MEL-5 = test system: SK-MEL-5
# HCT-15 = test system: HCT-15
# M14 = test system: M14
# A549 = test system: A549
# MDA-N = test system: MDA-N
# PC-3 = test system: PC-3
# BT-549 = test system: BT-549
smiles,measurement,setting,value
CN(C)CCNCc1ccc2c(-c3ccccc3)nc3cc(Cl)c(Cl)cc3n12,GI50,COLO 205,6.92 µM (inactive)
same,GI50,UACC-257,9.4 µM (inactive)
same,GI50,NCI/ADR-RES,15.8 µM (inactive)
same,GI50,NCI-H23,14.6 µM (inactive)
same,GI50,OVCAR-4,11.3 µM (inactive)
same,GI50,NCI-H460,9.68 µM (inactive)
same,GI50,MDA-MB-231,10.2 µM (inactive)
same,GI50,IGROV-1,7.59 µM (inactive)
same,GI50,CCRF-CEM,1.3 µM (inactive)
same,GI50,HOP-62,7.33 µM (inactive)
same,GI50,NCI-H522,13.6 µM (inactive)
same,GI50,SNB-75,7.46 µM (inactive)
same,GI50,SF-268,13.9 µM (inactive)
same,GI50,ACHN,7.6 µM (inactive)
same,GI50,T47D,4.94 µM (inactive)
same,GI50,OVCAR-5,10.6 µM (inactive)
same,GI50,Hs-578T,17.9 µM (inactive)
same,GI50,SF-539,7.35 µM (inactive)
same,GI50,NCI-H226,17.9 µM (inactive)
same,GI50,LOX IMVI,7.48 µM (inactive)
same,GI50,MDA-MB-435,8.69 µM (inactive)
same,GI50,SN12C,9.93 µM (inactive)
same,GI50,Malme-3M,17.5 µM (inactive)
same,GI50,SK-OV-3,6.43 µM (inactive)
same,GI50,UACC-62,8.85 µM (inactive)
same,GI50,HCT-116,7.74 µM (inactive)
same,GI50,786-0,5.96 µM (inactive)
same,GI50,SF-295,13.1 µM (inactive)
same,GI50,CAKI-1,8.51 µM (inactive)
same,GI50,HCC 2998,2.33 µM (inactive)
same,GI50,MCF7,6.19 µM (inactive)
same,GI50,K562,8.32 µM (inactive)
same,GI50,TK-10,10.9 µM (inactive)
same,GI50,SK-MEL-2,9.57 µM (inactive)
same,GI50,SNB-19,14 µM (inactive)
same,GI50,RXF 393,4.98 µM (inactive)
same,GI50,HL-60,2.01 µM (inactive)
same,GI50,A498,15.2 µM (inactive)
same,GI50,EKVX,15.3 µM (inactive)
same,GI50,RPMI-8226,12.8 µM (inactive)
same,GI50,OVCAR-3,17.5 µM (inactive)
same,GI50,DU-145,9.64 µM (inactive)
same,GI50,HT-29,8.3 µM (inactive)
same,GI50,SK-MEL-28,5.78 µM (inactive)
same,GI50,U-251,9.08 µM (inactive)
same,GI50,OVCAR-8,11.1 µM (inactive)
same,GI50,KM12,9.73 µM (inactive)
same,GI50,SW-620,8.83 µM (inactive)
same,GI50,UO-31,7.83 µM (inactive)
same,GI50,MOLT-4,8.53 µM (inactive)
same,GI50,HOP-92,13.1 µM (inactive)
same,GI50,SK-MEL-5,8.32 µM (inactive)
same,GI50,HCT-15,9.62 µM
same,GI50,M14,8.13 µM (inactive)
same,GI50,A549,10.1 µM (inactive)
same,GI50,MDA-N,9.48 µM (inactive)
same,GI50,PC-3,10.9 µM (inactive)
same,GI50,BT-549,16.4 µM (inactive)
